Experimental data published in US6455540B1, “Methods of use of quinolone compounds against anaerobic pathogenic bacteria” (priority 1999, dated 2002).

Experiments:
Test in all cases: Agar dilution MIC
[1] = system: Actinomyces odontolyticus; type: cell-based; settings: 10 isolates
Actinomyces israelii = type: cell-based; settings: 6 isolates
[2] = system: Anaerobiospirillum thomasii; type: cell-based; settings: 13 isolates
[3] = system: Anaerobiospirillum succiniciproducens; type: cell-based; settings: 3 isolates
Bacteroides gracilis = type: cell-based, Bacteroides gracilis (Campylobacter gracilis); settings: 11 isolates
Bacteroides tectum = type: cell-based; settings: 22 isolates
Bacteroides ureolyticus = type: cell-based; settings: 17 isolates
Bilophila wadsworthia = type: cell-based; settings: 16 isolates; agar supplemented with pyruvate
[4] = system: Clostridium clostridioforme; type: cell-based; settings: 11 isolates
Clostridium dfficile = type: cell-based, Clostridium difficile; settings: 14 isolates
Clostridium inocuum = type: cell-based, Clostridium innocuum; settings: 11 isolates
Clostridium ramosum = type: cell-based; settings: 10 isolates
[5] = system: Fusobacterium spp group 1; type: cell-based; settings: 19 isolates
[6] = system: Fusobacterium spp. group 2; type: cell-based, Fusobacterium mortiferum, necrogenes, ulcerans; settings: 12 isolates
Fusobacterium russii = type: cell-based
Fusobacterium varium = type: cell-based; settings: 17 isolates
[7] = system: Peptostreptococcus asaccharolyticus; type: cell-based; settings: 11 isolates
[8] = system: Peptostreptococcus magnus; type: cell-based; settings: 13 isolates
[9] = system: Peptostreptococcus micros; type: cell-based; settings: 12 isolates
[10] = system: Peptostreptococcus prevotii; type: cell-based; settings: 9 isolates
Porphyromonas gingivalis = type: cell-based; settings: 13 isolates
Porphyromonas macaccae = type: cell-based; settings: 13 isolates
Prevotella bivia = type: cell-based; settings: 21 isolates
[11] = system: Prevotella buccae-oris group; type: cell-based; settings: 22 isolates
[12] = system: Prevotella heparinolytica; type: cell-based; settings: 16 isolates
Prevotella intermedia = type: cell-based; settings: 11 isolates
[13] = system: Prevotella melaninogenica; type: cell-based; settings: 12 isolates
[14] = system: Prevotella denticola/loeschii group; type: cell-based; settings: 6 isolates
Veillonella spp. = type: cell-based; settings: 24 isolates
[15] = system: Porphyromonas asaccharolyticus; type: cell-based, Porphyromonas asaccharolytica; settings: 11 isolates
Porphyromonas canoris = type: cell-based; settings: 10 isolates

Compound: CC1(C)S[C@@H]2[C@H](NC(=O)Cc3ccccc3)C(=O)N2[C@H]1C(=O)O [Penicillin G]
- Minimal Inhibitory Concentration 50% (MIC50) [1]: 0.125 µg/mL
- Minimal Inhibitory Concentration 90% (MIC90) [1]: .0125 µg/mL
- Minimal Inhibitory Concentration Range [1]: 0.125 to 0.25 µg/mL
- Minimal Inhibitory Concentration 50% (MIC50) (Actinomyces israelii): 0.03 µg/mL
- Minimal Inhibitory Concentration 50% (MIC50) [2]: 0.06 µg/mL
- Minimal Inhibitory Concentration 90% (MIC90) [2]: 0.125 µg/mL
- Minimal Inhibitory Concentration Range [2]: 0.06 to 0.125 µg/mL
- Minimal Inhibitory Concentration 50% (MIC50) [3]: 0.5 µg/mL
- Minimal Inhibitory Concentration Range [3]: 0.5 to 1 µg/mL
- Minimal Inhibitory Concentration 50% (MIC50) (Bacteroides gracilis): 0.125 µg/mL
- Minimal Inhibitory Concentration 90% (MIC90) (Bacteroides gracilis): 4 µg/mL
- Minimal Inhibitory Concentration 50% (MIC50) (Bacteroides tectum): 0.03 µg/mL
- Minimal Inhibitory Concentration 90% (MIC90) (Bacteroides tectum): 16 µg/mL
- Minimal Inhibitory Concentration 90% (MIC90) (Bacteroides ureolyticus): 0.25 µg/mL
- Minimal Inhibitory Concentration 50% (MIC50) (Bilophila wadsworthia): 4 µg/mL
- Minimal Inhibitory Concentration 90% (MIC90) (Bilophila wadsworthia): 8 µg/mL
- Minimal Inhibitory Concentration Range (Bilophila wadsworthia): 2 to 16 µg/mL
- Minimal Inhibitory Concentration 50% (MIC50) [4]: 1 µg/mL
- Minimal Inhibitory Concentration 90% (MIC90) [4]: 16 µg/mL
- Minimal Inhibitory Concentration 50% (MIC50) (Clostridium dfficile): 2 µg/mL
- Minimal Inhibitory Concentration 90% (MIC90) (Clostridium dfficile): 4 µg/mL
- Minimal Inhibitory Concentration Range (Clostridium dfficile): 1 to 4 µg/mL
- Minimal Inhibitory Concentration 50% (MIC50) (Clostridium inocuum): 0.5 µg/mL
- Minimal Inhibitory Concentration 90% (MIC90) (Clostridium inocuum): 0.5 µg/mL
- Minimal Inhibitory Concentration 50% (MIC50) (Clostridium ramosum): 0.06 µg/mL
- Minimal Inhibitory Concentration 90% (MIC90) (Clostridium ramosum): 1 µg/mL
- Minimal Inhibitory Concentration Range (Clostridium ramosum): 0.06 to 1 µg/mL
- Minimal Inhibitory Concentration 90% (MIC90) [5]: 2 µg/mL
- Minimal Inhibitory Concentration 50% (MIC50) [6]: 0.25 µg/mL
- Minimal Inhibitory Concentration 90% (MIC90) [6]: 0.5 µg/mL
- Minimal Inhibitory Concentration 50% (MIC50) (Fusobacterium russii): 0.03 µg/mL
- Minimal Inhibitory Concentration 90% (MIC90) (Fusobacterium russii): 0.06 µg/mL
- Minimal Inhibitory Concentration 50% (MIC50) (Fusobacterium varium): 0.5 µg/mL
- Minimal Inhibitory Concentration 90% (MIC90) (Fusobacterium varium): 8 µg/mL
- Minimal Inhibitory Concentration 50% (MIC50) [7]: 0.03 µg/mL
- Minimal Inhibitory Concentration 90% (MIC90) [7]: 0.25 µg/mL
- Minimal Inhibitory Concentration 50% (MIC50) [8]: 0.03 µg/mL
- Minimal Inhibitory Concentration 90% (MIC90) [8]: 0.25 µg/mL
- Minimal Inhibitory Concentration 90% (MIC90) [9]: 0.03 µg/mL
- Minimal Inhibitory Concentration 50% (MIC50) [10]: 0.03 µg/mL
- Minimal Inhibitory Concentration Range [10]: 0.03 to 0.06 µg/mL
- Minimal Inhibitory Concentration 90% (MIC90) (Porphyromonas gingivalis): 0.03 µg/mL
- Minimal Inhibitory Concentration 50% (MIC50) (Porphyromonas macaccae): 0.5 µg/mL
- Minimal Inhibitory Concentration 90% (MIC90) (Porphyromonas macaccae): 0.5 µg/mL
- Minimal Inhibitory Concentration 50% (MIC50) (Prevotella bivia): 16 µg/mL
- Minimal Inhibitory Concentration 90% (MIC90) (Prevotella bivia): 32 µg/mL
- Minimal Inhibitory Concentration Range (Prevotella bivia): 0.25 to 32 µg/mL
- Minimal Inhibitory Concentration 50% (MIC50) [11]: 8 µg/mL
- Minimal Inhibitory Concentration 90% (MIC90) [11]: >32 µg/mL
- Minimal Inhibitory Concentration 50% (MIC50) [12]: 0.06 µg/mL
- Minimal Inhibitory Concentration 90% (MIC90) [12]: 0.125 µg/mL
- Minimal Inhibitory Concentration Range [12]: 0.06 to 0.25 µg/mL
- Minimal Inhibitory Concentration 50% (MIC50) (Prevotella intermedia): 0.03 µg/mL
- Minimal Inhibitory Concentration 90% (MIC90) (Prevotella intermedia): 4 µg/mL
- Minimal Inhibitory Concentration 50% (MIC50) [13]: 0.25 µg/mL
- Minimal Inhibitory Concentration 90% (MIC90) [13]: 2 µg/mL
- Minimal Inhibitory Concentration 50% (MIC50) [14]: 4 µg/mL
- Minimal Inhibitory Concentration 50% (MIC50) (Veillonella spp.): 1 µg/mL
- Minimal Inhibitory Concentration 90% (MIC90) (Veillonella spp.): 4 µg/mL

Compound: Amoxicillin clavulanate
- Minimal Inhibitory Concentration 90% (MIC90) [1]: 0.25 µg/mL
- Minimal Inhibitory Concentration Range [1]: 0.06 to 0.125 µg/mL
- Minimal Inhibitory Concentration 50% (MIC50) (Actinomyces israelii): 0.03 µg/mL
- Minimal Inhibitory Concentration Range (Actinomyces israelii): 0.03 to 1 µg/mL
- Minimal Inhibitory Concentration 90% (MIC90) [2]: 0.25 µg/mL
- Minimal Inhibitory Concentration Range [2]: 0.125 to 0.25 µg/mL
- Minimal Inhibitory Concentration 50% (MIC50) [3]: 0.25 µg/mL
- Minimal Inhibitory Concentration Range [3]: 0.25 to 0.5 µg/mL
- Minimal Inhibitory Concentration 50% (MIC50) (Bacteroides gracilis): 0.5 µg/mL
- Minimal Inhibitory Concentration 90% (MIC90) (Bacteroides gracilis): 2 µg/mL
- Minimal Inhibitory Concentration 50% (MIC50) (Bacteroides tectum): 0.06 µg/mL
- Minimal Inhibitory Concentration 90% (MIC90) (Bacteroides tectum): 0.5 µg/mL
- Minimal Inhibitory Concentration Range (Bacteroides tectum): 0.03 to 0.5 µg/mL
- Minimal Inhibitory Concentration 50% (MIC50) (Bilophila wadsworthia): 2 µg/mL
- Minimal Inhibitory Concentration 90% (MIC90) (Bilophila wadsworthia): 4 µg/mL
- Minimal Inhibitory Concentration Range (Bilophila wadsworthia): 1 to 4 µg/mL
- Minimal Inhibitory Concentration 50% (MIC50) [4]: 0.5 µg/mL
- Minimal Inhibitory Concentration 90% (MIC90) [4]: 1 µg/mL
- Minimal Inhibitory Concentration Range [4]: 0.5 to 8 µg/mL
- Minimal Inhibitory Concentration 50% (MIC50) (Clostridium dfficile): 1 µg/mL
- Minimal Inhibitory Concentration 90% (MIC90) (Clostridium dfficile): 1 µg/mL
- Minimal Inhibitory Concentration Range (Clostridium dfficile): 0.5 to 1 µg/mL
- Minimal Inhibitory Concentration 50% (MIC50) (Clostridium inocuum): 0.5 µg/mL
- Minimal Inhibitory Concentration 90% (MIC90) (Clostridium inocuum): 0.5 µg/mL
- Minimal Inhibitory Concentration Range (Clostridium inocuum): 0.5 to 2 µg/mL
- Minimal Inhibitory Concentration 50% (MIC50) (Clostridium ramosum): 0.06 µg/mL
- Minimal Inhibitory Concentration 90% (MIC90) (Clostridium ramosum): 0.25 µg/mL
- Minimal Inhibitory Concentration Range (Clostridium ramosum): 0.06 to 0.25 µg/mL
- Minimal Inhibitory Concentration 50% (MIC50) [5]: 0.06 µg/mL
- Minimal Inhibitory Concentration 50% (MIC50) [6]: 1 µg/mL
- Minimal Inhibitory Concentration 90% (MIC90) [6]: 2 µg/mL
- Minimal Inhibitory Concentration 50% (MIC50) (Fusobacterium russii): 0.06 µg/mL
- Minimal Inhibitory Concentration 50% (MIC50) (Fusobacterium varium): 2 µg/mL
- Minimal Inhibitory Concentration 90% (MIC90) (Fusobacterium varium): 4 µg/mL
- Minimal Inhibitory Concentration Range (Fusobacterium varium): 0.125 to 4 µg/mL
- Minimal Inhibitory Concentration 50% (MIC50) [7]: 0.03 µg/mL
- Minimal Inhibitory Concentration Range [7]: 0.03 to 1 µg/mL
- Minimal Inhibitory Concentration 50% (MIC50) [8]: 0.03 µg/mL
- Minimal Inhibitory Concentration Range [8]: 0.03 to 1 µg/mL
- Minimal Inhibitory Concentration 50% (MIC50) [9]: 0.03 µg/mL
- Minimal Inhibitory Concentration Range [9]: 0.03 to 0.125 µg/mL
- Minimal Inhibitory Concentration 50% (MIC50) [10]: 0.03 µg/mL
- Minimal Inhibitory Concentration 90% (MIC90) [15]: 0.03 µg/mL
- Minimal Inhibitory Concentration 90% (MIC90) (Porphyromonas canoris): 0.03 µg/mL
- Minimal Inhibitory Concentration 90% (MIC90) (Porphyromonas gingivalis): 0.06 µg/mL
- Minimal Inhibitory Concentration 50% (MIC50) (Prevotella bivia): 0.5 µg/mL
- Minimal Inhibitory Concentration 90% (MIC90) (Prevotella bivia): 4 µg/mL
- Minimal Inhibitory Concentration Range (Prevotella bivia): 0.06 to 4 µg/mL
- Minimal Inhibitory Concentration 50% (MIC50) [11]: 0.25 µg/mL
- Minimal Inhibitory Concentration 90% (MIC90) [11]: 1 µg/mL
- Minimal Inhibitory Concentration Range [11]: 0.125 to 2 µg/mL
- Minimal Inhibitory Concentration 90% (MIC90) [12]: 0.25 µg/mL
- Minimal Inhibitory Concentration Range [12]: 0.06 to 0.25 µg/mL
- Minimal Inhibitory Concentration 50% (MIC50) (Prevotella intermedia): 0.03 µg/mL
- Minimal Inhibitory Concentration Range (Prevotella intermedia): 0.03 to 0.5 µg/mL
- Minimal Inhibitory Concentration 50% (MIC50) [13]: 2 µg/mL
- Minimal Inhibitory Concentration 90% (MIC90) [13]: 4 µg/mL
- Minimal Inhibitory Concentration Range [13]: 0.03 to 16 µg/mL
- Minimal Inhibitory Concentration 50% (MIC50) [14]: 0.06 µg/mL
- Minimal Inhibitory Concentration Range [14]: 0.03 to 0.5 µg/mL
- Minimal Inhibitory Concentration 50% (MIC50) (Veillonella spp.): 0.5 µg/mL
- Minimal Inhibitory Concentration 90% (MIC90) (Veillonella spp.): 2 µg/mL
